Values quoted from earlier work in patent US20070237815A1 (priority 2006, published 2007).

Settings: in the elderly

half-life: approximately 72 hours
Compound: NS(=O)(=O)c1cc(C2(O)NC(=O)c3ccccc32)ccc1Cl (stereo not shown) [chlorthalidone]
